Experimental data as given in US20050109704A1, “Potable water delivery system with disinfection and residual discharge unit and method” (Pure H2O Bio-Technologies, Inc., priority 2003, published 2005).
Values joined by “and” are separate entries in the source; they are usually repeats but may differ in a detail not shown here. Identical values can stand only once.

Legend:
E. coli = experiment: Iodine Disinfection of E. coli; assay type: cell-based, Escherichia coli; settings: ambient (˜23° C.); for Raw counts, Average / Raw counts, Treated Rep.: undiluted/10 mL analyzed
Excerpt: (§1) At CT values of 50, the Log 10 reductions were greater than 8.0. CT is a common measurement unit referring to concentration in parts per million multiplied by time (in minutes). CFU is known as colony forming units per milliliter. […] See references: Block, S. S., 1977. Disinfection, Sterilization and Preservation. Lea & Febiger, Philadelphia. 2nd edition.

E. faecalis = experiment: Iodine Disinfection of E. faecalis; assay type: cell-based, Enterococcus faecalis; settings: ambient (˜23° C.)
Excerpt: as §1

P. aeruginosa = experiment: Iodine Disinfection of P. aeruginosa; assay type: cell-based, Pseudomonas aeruginosa; settings: ambient (˜23° C.); for Raw counts, Average / Raw counts, Treated Rep.: undiluted/10 mL analyzed
Excerpt: as §1

[1] = system: Escherichia coli, Pseudomonas aeruginosa and, Enterococcus faecalis; experiment: Iodine disinfection of bacteria, summary by CT value; assay type: cell-based; settings: CT values of 50 (ppm x min)
Excerpt: as §1

[2] = system: waterborne microbial contamination; settings: 3-4 ppm for 12 min at 24° C. (CT value of about 48); cited from earlier work
[3] = 5 mg/L 5 min, undiluted/10 mL analyzed
[4] = 5 mg/L 10 min, undiluted/10 mL analyzed
[5] = 15 mg/L 5 min, undiluted/10 mL analyzed

II
Log10/mL (E. coli; 5 mg/L 5 min): 1.2 Log10/mL | Log10 removal (E. coli; 5 mg/L 5 min): 5.7 Log10 | cfu/mL, Average (E. coli; 5 mg/L 5 min): 1.7 × 10^1 cfu/mL | Raw counts, Average (E. coli; 5 mg/L 5 min): 175 | Raw counts, Treated Rep. (E. coli; 5 mg/L 5 min): 171 and 168 and 185 | Log10/mL (E. coli; 5 mg/L 10 min): <−1.0 Log10/mL | Log10 removal (E. coli; 5 mg/L 10 min): >8.0 Log10 | cfu/mL, Average (E. coli; 5 mg/L 10 min): <0.1 cfu/mL | Raw counts, Average (E. coli; 5 mg/L 10 min): 0 | Raw counts, Treated Rep. (E. coli; 5 mg/L 10 min): 0 | Log10/mL (E. coli; 5 mg/L 15 min): <−1.0 Log10/mL | Log10 removal (E. coli; 5 mg/L 15 min): >8.0 Log10 | cfu/mL, Average (E. coli; 5 mg/L 15 min): <0.1 cfu/mL | Raw counts, Average (E. coli; 5 mg/L 15 min): 0 | Raw counts, Treated Rep. (E. coli; 5 mg/L 15 min): 0 | Log10/mL (E. coli; 15 mg/L 5 min): <−1.0 Log10/mL | Log10 removal (E. coli; 15 mg/L 5 min): >8.0 Log10 | cfu/mL, Average (E. coli; 15 mg/L 5 min): <0.1 cfu/mL | Raw counts, Average (E. coli; 15 mg/L 5 min): 0 | Raw counts, Treated Rep. (E. coli; 15 mg/L 5 min): 0 | Log10/mL (E. faecalis; 5 mg/L 5 min): 0.6 Log10/mL | Log10 removal (E. faecalis; 5 mg/L 5 min): 6.2 Log10 | cfu/mL, Average (E. faecalis; 5 mg/L 5 min): 3.9 × 10^0 cfu/mL | Raw counts, Average (E. faecalis; [3]): 39 | Raw counts, Treated Rep. (E. faecalis; [3]): 49 and 38 and 31 | Log10/mL (E. faecalis; 5 mg/L 10 min): <−1.0 Log10/mL | Log10 removal (E. faecalis; 5 mg/L 10 min): >7.8 Log10 | cfu/mL, Average (E. faecalis; 5 mg/L 10 min): <0.1 cfu/mL | Raw counts, Average (E. faecalis; [4]): 0 | Raw counts, Treated Rep. (E. faecalis; [4]): 0 | Log10/mL (E. faecalis; 5 mg/L 15 min): <−1.0 Log10/mL | Log10 removal (E. faecalis; 5 mg/L 15 min): >7.8 Log10 | Raw counts, Average (E. faecalis; 5 mg/L 15 min): 0 | Raw counts, Treated Rep. (E. faecalis; 5 mg/L 15 min): 0 | cfu/mL, Average (E. faecalis; 5 mg/L 15 min): <0.1 cfu/mL | Log10/mL (E. faecalis; 15 mg/L 5 min): <−1.0 Log10/mL | Log10 removal (E. faecalis; 15 mg/L 5 min): >7.8 Log10 | cfu/mL, Average (E. faecalis; 15 mg/L 5 min): <0.1 cfu/mL | Raw counts, Average (E. faecalis; [5]): 0 | Raw counts, Treated Rep. (E. faecalis; [5]): 0 | Log10/mL (P. aeruginosa; 5 mg/L 5 min): 1.2 Log10/mL | Log10 removal (P. aeruginosa; 5 mg/L 5 min): 5.7 Log10 | cfu/mL, Average (P. aeruginosa; 5 mg/L 5 min): 1.7 × 10^1 cfu/mL | Raw counts, Average (P. aeruginosa; 5 mg/L 5 min): 175 | Raw counts, Treated Rep. (P. aeruginosa; 5 mg/L 5 min): 171 and 168 and 185 | Log10/mL (P. aeruginosa; 5 mg/L 10 min): <−1.0 Log10/mL | Log10 removal (P. aeruginosa; 5 mg/L 10 min): >7.9 Log10 | cfu/mL, Average (P. aeruginosa; 5 mg/L 10 min): <0.1 cfu/mL | Raw counts, Average (P. aeruginosa; 5 mg/L 10 min): 0 | Raw counts, Treated Rep. (P. aeruginosa; 5 mg/L 10 min): 0 | Log10/mL (P. aeruginosa; 5 mg/L 15 min): <−1.0 Log10/mL | Log10 removal (P. aeruginosa; 5 mg/L 15 min): >7.9 Log10 | cfu/mL, Average (P. aeruginosa; 5 mg/L 15 min): <0.1 cfu/mL | Raw counts, Average (P. aeruginosa; 5 mg/L 15 min): 0 | Raw counts, Treated Rep. (P. aeruginosa; 5 mg/L 15 min): 0 | Log10/mL (P. aeruginosa; 15 mg/L 5 min): <−1.0 Log10/mL | Log10 removal (P. aeruginosa; 15 mg/L 5 min): >7.9 Log10 | cfu/mL, Average (P. aeruginosa; 15 mg/L 5 min): <0.1 cfu/mL | Raw counts, Average (P. aeruginosa; 15 mg/L 5 min): 0 | Raw counts, Treated Rep. (P. aeruginosa; 15 mg/L 5 min): 0 | Log 10 reductions [1]: greater than 8.0 Log 10 | waterborne microbial contamination reduced [2]: ≥ 7 logs
